Measurements: PMC9603901, “Therapeutic Potential of Antimicrobial Peptide PN5 against Multidrug-Resistant E. coli and Anti-Inflammatory Activity in a Septic Mouse Model” (Microbiology Spectrum, 2022)
≈ marks a conversion by molar mass, not a printed value.

Assays:
[1] = test system: MDR E. coli ASEC 10; assay: microbe, parasite or virus in culture; format: cell-based, Escherichia coli; conditions: microdilution, LB, 18 to 24 h, 37°C, three independent experiments
Description: (§1) Bacterial cells were cultured at 37°C in the appropriate culture media with shaking (180 rpm). Luria-Bertani broth (LB) (244620; BD Difco) was used for E. coli ATCC 25922, ASEC strains, and B. subtilis KCTC 2217. Nutrient broth (NB) (234000; BD Difco) was used for P. aeruginosa ATCC 27853, S. Typhimurium KCTC 1926, and A. baumannii KCTC 2508. Tryptic soy broth (TSB) (211825; BD Difco) was used for S. aureus ATCC 25923. Finally, brain heart infusion (BHI) (237500; BD Difco) was used for L. monocytogenes KCTC 3710. The antimicrobial activity of each peptide was determined using microdilution assays. To this end, 2-fold serial dilution series of each peptide (from 1 to 64 μM) were added to duplicate media with 10 mM sodium phosphate buffer (pH 7.4). Fifty microliters of the peptide and antibiotic solution was added to each well of a 96-well plate (32096, surface nontreatment; SPL Life Sciences). Then, 50 μL of 2 × 10^5 CFU mL^−1 of bacteria was added to each well, and the samples were incubated for 18 to 24 h without shaking at 37°C.

[2] = test system: MDR E. coli ASEC 11; assay: microbe, parasite or virus in culture; format: cell-based, Escherichia coli; conditions: microdilution, LB, 18 to 24 h, 37°C, three independent experiments
Description: as §1

[3] = test system: MDR E. coli ASEC 12; assay: microbe, parasite or virus in culture; format: cell-based, Escherichia coli; conditions: microdilution, LB, 18 to 24 h, 37°C, three independent experiments
Description: as §1

[4] = test system: MDR E. coli ASEC 13; assay: microbe, parasite or virus in culture; format: cell-based, Escherichia coli; conditions: microdilution, LB, 18 to 24 h, 37°C, three independent experiments
Description: as §1

[5] = test system: MDR E. coli ASEC 14; assay: microbe, parasite or virus in culture; format: cell-based, Escherichia coli; conditions: microdilution, LB, 18 to 24 h, 37°C, three independent experiments
Description: as §1

[6] = test system: MDR E. coli ASEC 15; assay: microbe, parasite or virus in culture; format: cell-based, Escherichia coli; conditions: microdilution, LB, 18 to 24 h, 37°C, three independent experiments
Description: as §1

[7] = test system: MDR E. coli ASEC 16; assay: microbe, parasite or virus in culture; format: cell-based, Escherichia coli; conditions: microdilution, LB, 18 to 24 h, 37°C, three independent experiments
Description: as §1

[8] = test system: MDR E. coli ASEC 17; assay: microbe, parasite or virus in culture; format: cell-based, Escherichia coli; conditions: microdilution, LB, 18 to 24 h, 37°C, three independent experiments
Description: as §1

[9] = test system: MDR E. coli ASEC 18; assay: microbe, parasite or virus in culture; format: cell-based, Escherichia coli; conditions: microdilution, LB, 18 to 24 h, 37°C, three independent experiments
Description: as §1

[10] = test system: MDR E. coli ASEC 19; assay: microbe, parasite or virus in culture; format: cell-based, Escherichia coli; conditions: microdilution, LB, 18 to 24 h, 37°C, three independent experiments
Description: as §1

[11] = test system: MDR E. coli ASEC 1; assay: microbe, parasite or virus in culture; format: cell-based, Escherichia coli; conditions: microdilution, LB, 18 to 24 h, 37°C, three independent experiments
Description: as §1

[12] = test system: MDR E. coli ASEC 2; assay: microbe, parasite or virus in culture; format: cell-based, Escherichia coli; conditions: microdilution, LB, 18 to 24 h, 37°C, three independent experiments
Description: as §1

[13] = test system: MDR E. coli ASEC 3; assay: microbe, parasite or virus in culture; format: cell-based, Escherichia coli; conditions: microdilution, LB, 18 to 24 h, 37°C, three independent experiments
Description: as §1

[14] = test system: MDR E. coli ASEC 4; assay: microbe, parasite or virus in culture; format: cell-based, Escherichia coli; conditions: microdilution, LB, 18 to 24 h, 37°C, three independent experiments
Description: as §1

[15] = test system: MDR E. coli ASEC 5; assay: microbe, parasite or virus in culture; format: cell-based, Escherichia coli; conditions: microdilution, LB, 18 to 24 h, 37°C, three independent experiments
Description: as §1

[16] = test system: MDR E. coli ASEC 6; assay: microbe, parasite or virus in culture; format: cell-based, Escherichia coli; conditions: microdilution, LB, 18 to 24 h, 37°C, three independent experiments
Description: as §1

[17] = test system: MDR E. coli ASEC 7; assay: microbe, parasite or virus in culture; format: cell-based, Escherichia coli; conditions: microdilution, LB, 18 to 24 h, 37°C, three independent experiments
Description: as §1

[18] = test system: MDR E. coli ASEC 8; assay: microbe, parasite or virus in culture; format: cell-based, Escherichia coli; conditions: microdilution, LB, 18 to 24 h, 37°C, three independent experiments
Description: as §1

[19] = test system: MDR E. coli ASEC 9; assay: microbe, parasite or virus in culture; format: cell-based, Escherichia coli; conditions: microdilution, LB, 18 to 24 h, 37°C, three independent experiments
Description: as §1

[20] = test system: S. Typhimurium KCTC 1926; format: cell-based, Salmonella enterica serovar Typhimurium; conditions: microdilution, NB, 18 to 24 h, 37°C, three independent experiments
Description: as §1

[21] = test system: A. baumannii KCTC 2508; format: cell-based, Acinetobacter baumannii; conditions: microdilution, NB, 18 to 24 h, 37°C, three independent experiments
Description: as §1

[22] = test system: B. subtilis KCTC 2217; format: cell-based, Bacillus subtilis; conditions: microdilution, LB, 18 to 24 h, 37°C, three independent experiments
Description: as §1

[23] = test system: L. monocytogenes KCTC 3710; format: cell-based, Listeria monocytogenes; conditions: microdilution, BHI, 18 to 24 h, 37°C, three independent experiments
Description: as §1

[24] = test system: mouse red blood cells; assay: Hemolytic activity; format: cell-based; conditions: 8% mouse red blood cells, 1 h, 37°C
Description: (§2) RAW 264.7 cells (mouse macrophage cells) were maintained in high-glucose Dulbecco’s modified Eagle medium (DMEM) (Welgene, Daegu, South Korea) supplemented with 10% fetal bovine serum (FBS) (Gibco) and 1% penicillin at 37°C in humidified 5% CO2. Cells (2 × 10^5 cells well^−1) were seeded into DMEM supplemented with 10% FBS medium in a 96-well plate. The MTT assay was performed after culturing the cells in 96-well plates at a density of 2 × 10^5 cells well^−1, followed by treatment with serially diluted PN5, magainin 2, and melittin. After 24 h, the medium was discarded, and 100 μL DMEM and 10% FBS medium containing 0.5 mg mL^−1 MTT were added to each well. After 4 h of incubation, the medium was discarded and dimethyl sulfoxide was added to each well to solubilize the formazan. The optical densities at 570 and 650 nm (OD570 and OD650, respectively) of the treated cells were compared to those of control cells. The hemolytic activity of the peptides was evaluated as the release of hemoglobin from an 8% mRBC suspension. A 100-μL aliquot of the 8% mRBC suspension was added to the wells of a 96-well plate, and 100 μL of peptide solution in phosphate-buffered saline (PBS) was added at a final peptide concentration of 200 μM. After incubation for 1 h at 37°C with shaking (50 rpm), the suspensions were centrifuged at 1,000 × g for 5 min. The absorbance of the supernatant was measured at 414 nm using a Versa Max microplate reader (Molecular Devices). As a control, no hemolysis and complete hemolysis were determined in PBS and 0.1% Triton X-100, respectively. The degree of hemolysis was calculated using the following equation as described in reference: %hemolysis=[(A414withpeptide-A414withPBS)/(A414with0.1%TritonX-100-A414 with PBS)] × 100

[25] = test system: RAW 264.7 cells; assay: MTT cell viability; format: cell-based, mouse; conditions: 24 h
Description: as §2

[26] = test system: RAW 264.7 cells; assay: IncuCyte Cytotox green time-dependent cytotoxicity; format: cell-based, mouse; conditions: 25 μM
Description: An IncuCyte cytotoxicity assay (Essen BioScience, Inc., Ann Arbor, MI, USA) was performed to evaluate time-dependent cytotoxicity. RAW 264.7 cells (2 × 10^5 cells well^−1) were seeded into 96-well culture plates and then treated with peptides and IncuCyte Cytotox green reagent (Essen BioScience, Inc.). Up to 200 μM PN5 and 25 μM melittin were used to treat RAW 264.7 cells, with the concentrations serially diluted by half. […] The cells were stained with IncuCyte Cytotox green reagent. The viability was measured using IncuCyte software (Essen BioScience, Inc.) ([56]).

[27] = test system: P. aeruginosa ATCC 27853; format: cell-based, Pseudomonas aeruginosa; conditions: microdilution, NB, 18 to 24 h, 37°C, three independent experiments
Description: as §1

[28] = test system: S. aureus ATCC 25923; format: cell-based, Staphylococcus aureus; conditions: microdilution, TSB, 18 to 24 h, 37°C, three independent experiments
Description: as §1

[29] = test system: E. coli ATCC 25922; assay: NPN uptake, outer membrane permeability; format: cell-based, Escherichia coli; conditions: E. coli ATCC 25922, 4× MIC, 60 min, 10 μM NPN, relative to 0.1% Triton X-100
Description: The ability of PN5 to permeate the outer bacterial membrane was determined based on the uptake of NPN, a fluorescent dye. Briefly, E. coli 25922 cells grown to the logarithmic phase at 37°C were harvested by centrifugation at 6,000 × g and 4°C for 10 min. The bacterial cells were washed twice with 5 mM HEPES buffer (pH 7.4) and resuspended to OD600 of 0.4. NPN was added to the bacterial suspension at a final concentration of 10 μM. Aliquots of the peptides were added to the bacterial suspensions. Background fluorescence was recorded using a fluorescence spectrophotometer. The excitation and emission wavelengths were set to 350 and 420 nm, respectively. The values were converted to percentage of NPN uptake using the equation % NPN uptake = [(Fobs − F0)/(F100 − F0)] × 100, where Fobs is the fluorescence observed at each peptide concentration, F0 is the initial fluorescence of NPN with E. coli in the absence of peptides, and F100 is the fluorescence of NPN upon the addition of 0.1% Triton X-100, which was used as a positive control ([57]).

With `CC[C@H](C)[C@H](NC(=O)CN)C(=O)NCC(=O)N[C@@H](C)C(=O)N[C@H](C(=O)N[C@@H](CC(C)C)C(=O)N[C@@H](CCCCN)C(=O)N[C@H](C(=O)N[C@@H](CC(C)C)C(=O)N[C@H](C(=O)N[C@H](C(=O)NCC(=O)N[C@@H](CC(C)C)C(=O)N1CCC[C@H]1C(=O)N[C@@H](C)C(=O)N[C@@H](CC(C)C)C(=O)N[C@H](C(=O)N[C@@H](CO)C(=O)N[C@@H](Cc1c[nH]c2ccccc12)C(=O)N[C@H](C(=O)N[C@@H](CCCCN)C(=O)N[C@@H](CCCNC(=N)N)C(=O)N[C@@H](CCCCN)C(=O)N[C@@H](CCCNC(=N)N)C(=O)N[C@@H](CCC(N)=O)C(=O)N[C@@H](CCC(N)=O)C(N)=O)[C@@H](C)CC)[C@@H](C)CC)[C@@H](C)O)[C@@H](C)O)C(C)C)C(C)C` [Melittin] the MIC [1] was 4 (11.39) μM, the MIC [2] was 4 (11.39) μM and the MIC [3] was 4 (11.39) μM. For the same molecule, the MIC [4] was 4 (11.39) μM, the MIC [5] was 2 (5.69) μM and the MIC [6] was 4 (11.39) μM. For the same molecule, the MIC [7] was 4 (11.39) μM, the MIC [8] was 8 (22.77) μM and the MIC [9] was 4 (11.39) μM. For the same molecule, the MIC [10] was 8 (22.77) μM, the MIC [11] was 4 (11.39) μM and the MIC [12] was 4 (11.39) μM. For the same molecule, the MIC [13] was 4 (11.39) μM, the MIC [14] was 8 (22.77) μM and the MIC [15] was 2 (5.69) μM. The MIC [16] was 4 (11.39) μM, the MIC [17] was 4 (11.39) μM and the MIC [18] was 4 (11.39) μM. The MIC [19] was 4 (11.39) μM, the MIC [20] was 4 µM (≈ 11.4 µg/mL) and the MIC [21] was 2 µM. The MIC [22] was 2 µM, the MIC [23] was 4 µM (≈ 11.4 µg/mL) and the hemolysis ([24]; 3.125 μM, PBS, A414, mean of three experiments) was 44.02%. The hemolysis ([24]; 6.25 μM) was 77.24%, the “toxicity, MTT assay” value ([25]; 6.25 μM) was “over 50%” and the “cytotoxicity, Cytotox green fluorescence” value [26] was “immediately damaged the cells”.
Magainin 2 was tested, and the MIC [1] was 16 (39.47) μM, the MIC [2] was 16 (39.47) μM and the MIC [3] was 16 (39.47) μM. For the same molecule, the MIC [4] was 16 (39.47) μM, the MIC [5] was 4 (9.87) μM and the MIC [6] was 16 (39.47) μM. The MIC [7] was 8 (19.74) μM, the MIC [9] was 16 (39.47) μM and the MIC [11] was 16 (39.47) μM. The MIC [12] was 8 (19.74) μM, the MIC [13] was 16 (39.47) μM and the MIC [15] was 16 (39.47) μM. For the same molecule, the MIC [16] was 4 (9.87) μM, the MIC [17] was 8 (19.74) μM and the MIC [18] was 16 (39.47) μM. The MIC [19] was 8 (19.74) μM, the MIC [27] was 32 µM and the MIC [21] was 19.74 mg/L. For the same molecule, the MIC [28] was 39.47 mg/L, the MIC [22] was 39.47 mg/L and the “toxicity, MTT assay” value ([25]; 200 μM) was “over 50%”. The NPN uptake [29] was 35.7%.
